Columns and labels:
[1] = tested on: Redroot pigweed (AMARE), normal wild variety (non-tolerant); test: Glasshouse postemergence herbicide test, percentage damage on normal wild (non-tolerant) plants; assay type: in vivo; details: rates of Table 1; 13 days after application
Excerpt: (§1) The soil was a silty clay loam mixed with fertiliser (12-12-12) at the rate of 128 g fertiliser to 10 gallons of soil.
(§2) The tolerant seeds were planted 13 days earlier than the non-tolerant seeds in order to get the seedlings to a similar size by the time the herbicide was applied. The time difference in planting was based on earlier observations of germination speed. On application of the herbicides, the tolerant plants had reached the 6-9 leaf stage, and the non-tolerant plants the 5-leaf stage.
(§3) Herbicide solutions were made by dissolving the herbicide(s) in tap water containing 0.5% of a commercial surfactant, ‘Tween 20’. The solutions were applied at […] and 40 p.s.i pressure, using an 80015E nozzle. After spraying, the plants were placed in a glasshouse at 29/20° C. day/night temperature and 45/65% day/night relative humidity and a photoperiod of 14 hours.
(§4) The figures in the mesotrione and atrazine columns are g/ha of herbicide applied to the test pots. The figures in the subsequent columns are percentage damage observed 13 days after application of the relevant herbicide composition. The numbers range from 0 (no effect) to 100 (dead plants). The main area of focus for the present invention is the effect on tolerant plants, and the effect on non-tolerant plants was only measured for comparative purposes.

[2] = tested on: Redroot pigweed (AMARE), variant known to exhibit triazine tolerance; assay type: in vivo; details: 13 days after application; for effect on tolerant plants (in words): rates of Table 1
Excerpt: as §1, §2, §3, §4

Structure (SMILES)	effect on non-tolerant plants (in words) [1]	effect on tolerant plants (in words) [2]	damage level on tolerant plants ([2]; 0.90 g/ha mesotrione alone)
CCNc1nc(Cl)nc(NC(C)C)n1 [Atrazine, atrazine]	significantly damaging	no effect at all	–
CS(=O)(=O)c1ccc(C(=O)C2C(=O)CCCC2=O)c([N+](=O)[O-])c1 [mesotrione]	causes damage	causes damage	2
